Experimental data as given in US6995138B2, “Cross-linked glycopeptide-cephalosporin antibiotics” (priority 2002, dated 2006).
Converted amounts (≈) assume the structure as drawn.

Tests used:
[1] = tested on: Methicillin-resistant S. aureus (MRSA 33591); experiment: Minimal inhibitory concentration (MIC), broth microdilution, MRSA; format: cell-based; conditions: Staphylococcus aureus, read-out: MIC (minimum inhibitory concentration)
Protocol: (§1) Minimal inhibitory concentration (MICs) assays were performed using the broth microdilution method set forth in NCCLS guidelines (see, NCCLS. 2000. Methods for Dilution Antimicrobial Susceptibility Tests for Bacteria That Grow Aerobically; Approved Standard—Fifth Ed., Vol. 20, No. 2). Bacterial strains were obtained from the American Type Tissue Culture Collection (ATCC), Stanford University Hospital (SU), Kaiser Permanente Regional Laboratory in Berkeley (KPB), Massachusetts General Hospital (MGH), the Centers for Disease Control (CDC), the San Francisco Veterans' Administration Hospital (SFVA) or the University of California San Francisco Hospital (UCSF). Vancomycinresistant enterococci were phenotyped as Van A or Van B based on their sensitivity to teicoplanin. Some vancomycin-resistant enterococci that had been genotyped as Van A, Van B, Van C1 or Van C2 were also obtained from the Mayo Clinic.
(§2) In this assay, cryopreserved bacterial cultures of reference and clinical strains were streaked for isolation on appropriate agar medium (i.e., Trypticase Soy Agar, Trypticase Soy Agar with defibrinated sheep erthrocytes, Brain Heart Infusion Agar, Chocolate Agar). Following incubation to allow formation of colonies, these plates were sealed with parafilm and stored refrigerated for up to two weeks. […] The MIC was read visually as the lowest concentration well with no bacterial growth. […]

[2] = tested on: Methicillin-sensitive S. aureus (MSSA 13709); experiment: Minimal inhibitory concentration (MIC), broth microdilution, MSSA; format: cell-based; conditions: Staphylococcus aureus, read-out: MIC (minimum inhibitory concentration)
Protocol: as §1, §2

MSSA 13709 = experiment: Time-kill assay, MSSA; format: cell-based, Staphylococcus aureus; conditions: bactericidal in 24 hours
Protocol: (§3) Time-Kill Assay This time-kill assay is a method for measuring the rate of bactericidal activity of a test compound.
(§4) Bacteria were diluted in prewarmed media in shake flasks and incubated with shaking (200 rpm, 35° C.). At 0, 1, 4, and 24 hours samples were withdrawn from the flasks and bacteria were enumerated by plate counting. Subsequent to the initial sampling, a compound to be assayed was added to the shake flask culture. Plate counts at these intervals previous to and following addition of the compound were expressed graphically in a time-kill curve.

MRSA 33591 [3] = experiment: Time-kill assay, MRSA; format: cell-based, Staphylococcus aureus; conditions: bactericidal in 24 hours
Protocol: as §3, §4

MRSA 33591 [4] = experiment: In vivo efficacy in neutropenic mice (thigh infection); conditions: Staphylococcus aureus; neutropenic male CD-1 mice, MRSA 33591 thigh infection, iv, 24 hours post-treatment; read-out: ED50 (dose required to produce 50% of the maximum reduction in thigh titre)
Protocol: In vivo Efficacy Studies in Neutropenic Mice Animals (male CD-1 mice, 20-30 g) were acquired from Charles Rivers Laboratories (Gilroy, Calif.) and allowed access to food and water ad libitum. Neutropenia was induced via 200 mg/kg intraperitoneal (IP) injection of cyclophosphamide given four and two days prior to the inoculation of bacteria.
The organism used was either a susceptible or resistant strain of clinically relevant gram positive pathogens, such as methicillin-susceptible Staphylococcus aureus (MSSA 13709) and methicillin-resistant Staphylococcus aureus (MRSA 33591). The bacterial inoculum concentration was ˜10^6 CFU/mL. Animals were lightly anesthetized with isoflurane and […] of the bacterial inoculum was injected into the anterior thigh. One hour after the inoculation, animals were dosed intravenously with vehicle or the appropriate dose of the test compound. At 0 hours and 24 hours post-treatment, the animals were euthanized (CO2 asphyxiation) and the anterior and posterior thigh collected aseptically. The thigh was placed into 10 mL sterile saline and homogenized. Dilutions of the homogenate were plated onto triptic soy agar plates which were incubated overnight. The number of bacterial colonies on a given plate was multiplied by the dilution factor, divided by the thigh weight (in grams) and expressed as log CFU/g. […]

Question: With `CN[C@H](CC(C)C)C(=O)N[C@H]1C(=O)N[C@@H](CC(N)=O)C(=O)N[C@H]2C(=O)N[C@H]3C(=O)N[C@H](C(=O)N[C@H](C(=O)O)c4cc(O)cc(O)c4-c4cc3ccc4O)[C@H](O)c3ccc(c(Cl)c3)Oc3cc2cc(c3O[C@@H]2O[C@H](CO)[C@@H](O)[C@H](O)[C@H]2O[C@H]2C[C@](C)(N)[C@H](O)[C@H](C)O2)Oc2ccc(cc2Cl)[C@H]1O` [Vancomycin, vancomycin] as the compound, how does the MIC [1] read?
Answer: The MIC was 2 mg/L (≈ 1.38 µM).

Question: What about the MIC [2] of the same compound?
Answer: The MIC was 1 mg/L (≈ 0.69 µM).

Question: What about the “concentration at which bactericidal (≧3 log decrease in bacterial cell numbers)” value (MSSA 13709) of the same compound?
Answer: The value was 4 μg/mL.

Question: What about the “concentration at which bactericidal (≧3 log decrease in bacterial cell numbers)” value (MRSA 33591 [3]) of the same compound?
Answer: The value was 4 μg/mL.

Question: What about the ED50 (MRSA 33591 [4]) of the same compound?
Answer: The ED50 was 9 mg/kg.
